Assay results: patent publication US20260158017A1, “KIF18A INHIBITOR” (WIGEN BIOMEDICINE TECHNOLOGY (SHANGHAI) CO., LTD., priority 2021, published 2026)
pIC50: −log10 of the molar value.

Biological target: T1, Recombinant human KIF18A (1-467His-tagged) protein (Homo sapiens, UniProt Q8NI77)
T1 construct: Recombinant human KIF18A (1-467His-tagged) protein; His; made in house
Assay: KIF18A enzyme assay (microtubule-stimulated ATPase activity, ADP-Glo)
Assay type: biochemical
Conditions: 30 nM KIF18A, 75 μM ATP, 30 μg/mL pig microtubules; read-out: Inhibitory activity against KIF18A IC50
Description: In Vitro Assay of the Compounds of the Present Invention for Inhibiting Enzymatic Activity of KIF18A
KIF18A enzyme assay: The enzymatic activity of KIF18A after treatment with the compounds was measured by an assay of microtubule-stimulated ATPase activity. ADP generated from the ATPase reaction was measured in this assay. The compounds were serially diluted 2-fold in DMSO over a range of 22 concentration points. […] Concentrations of KIF18A protein, microtubules, and ATP in the reaction were optimized for a standardized homogenous enzyme assay using an ADP-Glo kinase/ATPase assay kit. A reaction buffer [(15 mM Tris, pH 7.5), 10 mM MgCl2, 0.01% PluronicF-68, 1 μM paclitaxel, and 30 μg/mL pig microtubules] was prepared. […] The resulting reaction mixture was incubated at room temperature for another 15 min. 5 μL of ADP-Glo reagent and 2.5 μL of the reaction mixture were mixed and the resulting mixture was incubated at room temperature for 40 min. 10 μL of ADP-Glo detection reagent was added and the mixture was incubated at room temperature for 40 min. Luminescence was read using a microplate reader and compared with that of the DMSO group, and then the inhibition percentages and IC50 values of the compounds were calculated.

T1 sequence (Q8NI77 1-467): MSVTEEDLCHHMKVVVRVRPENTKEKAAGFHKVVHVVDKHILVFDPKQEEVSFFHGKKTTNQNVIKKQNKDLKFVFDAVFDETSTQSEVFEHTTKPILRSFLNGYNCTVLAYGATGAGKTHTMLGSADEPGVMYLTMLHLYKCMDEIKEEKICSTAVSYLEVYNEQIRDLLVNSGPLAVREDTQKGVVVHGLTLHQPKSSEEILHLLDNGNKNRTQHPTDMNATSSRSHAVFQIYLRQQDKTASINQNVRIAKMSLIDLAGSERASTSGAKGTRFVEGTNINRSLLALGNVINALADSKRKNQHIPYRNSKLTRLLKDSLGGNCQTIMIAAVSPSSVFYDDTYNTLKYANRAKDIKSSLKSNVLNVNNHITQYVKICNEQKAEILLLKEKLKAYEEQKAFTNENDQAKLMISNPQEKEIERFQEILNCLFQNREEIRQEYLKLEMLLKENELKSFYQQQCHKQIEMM
T1 sequence (P02550 whole entry partner): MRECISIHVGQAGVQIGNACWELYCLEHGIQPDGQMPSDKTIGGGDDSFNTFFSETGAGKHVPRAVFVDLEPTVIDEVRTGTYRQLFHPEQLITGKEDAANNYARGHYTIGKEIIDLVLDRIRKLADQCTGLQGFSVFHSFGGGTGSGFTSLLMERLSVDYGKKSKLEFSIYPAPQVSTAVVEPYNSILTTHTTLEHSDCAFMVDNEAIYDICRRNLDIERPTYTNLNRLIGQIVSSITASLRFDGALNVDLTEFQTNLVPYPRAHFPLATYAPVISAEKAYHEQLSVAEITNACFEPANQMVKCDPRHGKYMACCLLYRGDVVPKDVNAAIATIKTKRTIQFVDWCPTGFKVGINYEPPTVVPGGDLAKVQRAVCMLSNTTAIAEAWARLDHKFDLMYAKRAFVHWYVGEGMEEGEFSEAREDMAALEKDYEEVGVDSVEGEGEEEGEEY
T1 sequence (P02554 whole entry partner): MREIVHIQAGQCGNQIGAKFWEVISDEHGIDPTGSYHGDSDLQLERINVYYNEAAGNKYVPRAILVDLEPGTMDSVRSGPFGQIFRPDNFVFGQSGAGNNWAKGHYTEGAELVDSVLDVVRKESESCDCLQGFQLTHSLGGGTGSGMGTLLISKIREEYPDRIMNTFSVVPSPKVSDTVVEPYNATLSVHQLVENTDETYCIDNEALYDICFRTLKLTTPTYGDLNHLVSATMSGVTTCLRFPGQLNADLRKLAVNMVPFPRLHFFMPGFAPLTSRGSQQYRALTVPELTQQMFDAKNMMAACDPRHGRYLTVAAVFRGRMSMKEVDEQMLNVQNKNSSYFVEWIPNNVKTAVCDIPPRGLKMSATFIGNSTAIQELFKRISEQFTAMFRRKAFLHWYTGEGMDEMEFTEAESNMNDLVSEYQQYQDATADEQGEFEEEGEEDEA

pIC50 | SMILES
6.30 to 7.00 | C[C@@H]1CN(c2cc(C(=O)Nc3ccc(S(=O)(=O)NCCO)cc3N3CCC4(CC3)CC4)ccc2[N+](=O)[O-])CCO1 [Compound 50]
6.30 to 7.00 | C[C@H]1CN(c2cc(C(=O)Nc3ccc(S(=O)(=O)NCCO)cc3N3CCC4(CC3)CC4)ccc2[N+](=O)[O-])CCO1 [Compound 51]
6.30 to 7.00 | O=C(Nc1ccc(S(=O)(=O)NCCO)cc1N1CCC2(CC1)CC2)c1ccc([N+](=O)[O-])c(N2CC(F)(F)C2)c1 [Compound 52]
6.30 to 7.00 | O=C(Nc1ccc(S(=O)(=O)NCCO)cc1N1CCC2(CC1)CC2)c1ccc([N+](=O)[O-])c(OCCC(F)(F)F)c1 [Compound 53]
6.30 to 7.00 | O=C(Nc1ccc(S(=O)(=O)NCCO)cc1N1CCC2(CC1)CC2)c1ccc([N+](=O)[O-])c(N2CCC3(CC3)C2)c1 [Compound 54]
6.30 to 7.00 | O=C(Nc1ccc(S(=O)(=O)NCCO)cc1N1CCC2(CC1)CC2)c1ccc([N+](=O)[O-])c(OC2CCC2)c1 [Compound 55]
6.30 to 7.00 | CC1(F)CCN(c2cc(C(=O)Nc3ccc(S(=O)(=O)NCCO)cc3N3CCC4(CC3)CC4)ccc2[N+](=O)[O-])C1 (centres unmarked) [Compound 56]
6.30 to 7.00 | O=C(Nc1ccc(S(=O)(=O)NCCO)cc1N1CCC2(CC1)CC2)c1ccc([N+](=O)[O-])c(N2CCC(F)CC2)c1 [Compound 57]
6.30 to 7.00 | O=C(Nc1ccc(S(=O)(=O)NCCO)cc1N1CCC2(CC1)CC2)c1ccc([N+](=O)[O-])c(N2CC3CC3C2)c1 (centres unmarked) [Compound 58]
6.30 to 7.00 | CC(C)(CO)Nc1cc(C(=O)Nc2ccc(S(=O)(=O)NCCO)cc2N2CCC3(CC2)CC3)ccc1[N+](=O)[O-] [Compound 59]
6.30 to 7.00 | O=C(Nc1ccc(S(=O)(=O)NCCO)cc1N1CCC2(CC1)CC2)c1ccc([N+](=O)[O-])c(N2CCOCC2)c1 [Compound 60]
6.30 to 7.00 | C[C@@H](CO)NS(=O)(=O)c1ccc(NC(=O)c2ccc([N+](=O)[O-])c(N3CCC(F)(F)CC3)c2)c(N2CCC3(CC2)CC3)c1 [Compound 61]
6.30 to 7.00 | C[C@H](CO)NS(=O)(=O)c1ccc(NC(=O)c2ccc([N+](=O)[O-])c(N3CCC(F)(F)CC3)c2)c(N2CCC3(CC2)CC3)c1 [Compound 62]
6.30 to 7.00 | C[C@@H]1CN(c2cc(C(=O)Nc3ccc(S(=O)(=O)N[C@@H](C)CO)cc3N3CCC4(CC3)CC4)ccc2[N+](=O)[O-])CCO1 [Compound 63]
6.30 to 7.00 | C[C@H](CO)NS(=O)(=O)c1ccc(NC(=O)c2ccc([N+](=O)[O-])c(N3CCO[C@H](C)C3)c2)c(N2CCC3(CC2)CC3)c1 [Compound 64]
≥ 7.00 | C[C@@H]1CN(c2nc(NC(=O)c3ccc(NS(=O)(=O)CCO)cc3N3CCC4(CC3)CC4)ccc2[N+](=O)[O-])CCO1 [Compound 66]
≥ 7.00 | C[C@H]1CN(c2nc(NC(=O)c3ccc(NS(=O)(=O)CCO)cc3N3CCC4(CC3)CC4)ccc2[N+](=O)[O-])CCO1 [Compound 67]
≥ 7.00 | O=C(Nc1ccc([N+](=O)[O-])c(N2CC(F)(F)C2)n1)c1ccc(NS(=O)(=O)CCO)cc1N1CCC2(CC1)CC2 [Compound 68]
≥ 7.00 | O=C(Nc1ccc([N+](=O)[O-])c(OCCC(F)(F)F)n1)c1ccc(NS(=O)(=O)CCO)cc1N1CCC2(CC1)CC2 [Compound 69]
≥ 7.00 | O=C(Nc1ccc([N+](=O)[O-])c(N2CCC3(CC3)C2)n1)c1ccc(NS(=O)(=O)CCO)cc1N1CCC2(CC1)CC2 [Compound 70]
≥ 7.00 | O=C(Nc1ccc([N+](=O)[O-])c(OC2CCC2)n1)c1ccc(NS(=O)(=O)CCO)cc1N1CCC2(CC1)CC2 [Compound 71]
≥ 7.00 | CC1(F)CCN(c2nc(NC(=O)c3ccc(NS(=O)(=O)CCO)cc3N3CCC4(CC3)CC4)ccc2[N+](=O)[O-])C1 (centres unmarked) [Compound 72]

pIC50 | SMILES
≥ 7.00 | O=C(Nc1ccc([N+](=O)[O-])c(N2CCC(F)CC2)n1)c1ccc(NS(=O)(=O)CCO)cc1N1CCC2(CC1)CC2 [Compound 73]
≥ 7.00 | O=C(Nc1ccc([N+](=O)[O-])c(N2CC3CC3C2)n1)c1ccc(NS(=O)(=O)CCO)cc1N1CCC2(CC1)CC2 (centres unmarked) [Compound 74]
≥ 7.00 | CC(C)(CO)Nc1nc(NC(=O)c2ccc(NS(=O)(=O)CCO)cc2N2CCC3(CC2)CC3)ccc1[N+](=O)[O-] [Compound 75]
≥ 7.00 | O=C(Nc1ccc([N+](=O)[O-])c(N2CCOCC2)n1)c1ccc(NS(=O)(=O)CCO)cc1N1CCC2(CC1)CC2 [Compound 76]
≥ 7.00 | C[C@@H](CO)S(=O)(=O)Nc1ccc(C(=O)Nc2ccc([N+](=O)[O-])c(N3CCC(F)(F)CC3)n2)c(N2CCC3(CC2)CC3)c1 [Compound 77]
≥ 7.00 | C[C@H](CO)S(=O)(=O)Nc1ccc(C(=O)Nc2ccc([N+](=O)[O-])c(N3CCC(F)(F)CC3)n2)c(N2CCC3(CC2)CC3)c1 [Compound 78]
≥ 7.00 | C[C@@H]1CN(c2nc(NC(=O)c3ccc(NS(=O)(=O)[C@@H](C)CO)cc3N3CCC4(CC3)CC4)ccc2[N+](=O)[O-])CCO1 [Compound 79]
≥ 7.00 | C[C@@H]1CN(c2nc(NC(=O)c3ccc(NS(=O)(=O)[C@H](C)CO)cc3N3CCC4(CC3)CC4)ccc2[N+](=O)[O-])CCO1 [Compound 80]
≥ 7.00 | O=C(Nc1ccc([N+](=O)[O-])c(N2CCC(F)(F)CC2)n1)c1ccc(S(=O)(=O)NCCO)cc1N1CCC2(CC1)CC2 [Compound 81]
≥ 7.00 | C[C@@H]1CN(c2nc(NC(=O)c3ccc(S(=O)(=O)NCCO)cc3N3CCC4(CC3)CC4)ccc2[N+](=O)[O-])CCO1 [Compound 82]
≥ 7.00 | C[C@H]1CN(c2nc(NC(=O)c3ccc(S(=O)(=O)NCCO)cc3N3CCC4(CC3)CC4)ccc2[N+](=O)[O-])CCO1 [Compound 83]
≥ 7.00 | O=C(Nc1ccc([N+](=O)[O-])c(N2CC(F)(F)C2)n1)c1ccc(S(=O)(=O)NCCO)cc1N1CCC2(CC1)CC2 [Compound 84]
≥ 7.00 | O=C(Nc1ccc([N+](=O)[O-])c(OCCC(F)(F)F)n1)c1ccc(S(=O)(=O)NCCO)cc1N1CCC2(CC1)CC2 [Compound 85]
≥ 7.00 | O=C(Nc1ccc([N+](=O)[O-])c(N2CCC3(CC3)C2)n1)c1ccc(S(=O)(=O)NCCO)cc1N1CCC2(CC1)CC2 [Compound 86]
≥ 7.00 | O=C(Nc1ccc([N+](=O)[O-])c(OC2CCC2)n1)c1ccc(S(=O)(=O)NCCO)cc1N1CCC2(CC1)CC2 [Compound 87]
≥ 7.00 | CC1(F)CCN(c2nc(NC(=O)c3ccc(S(=O)(=O)NCCO)cc3N3CCC4(CC3)CC4)ccc2[N+](=O)[O-])C1 (centres unmarked) [Compound 88]
≥ 7.00 | O=C(Nc1ccc([N+](=O)[O-])c(N2CCC(F)CC2)n1)c1ccc(S(=O)(=O)NCCO)cc1N1CCC2(CC1)CC2 [Compound 89]
≥ 7.00 | O=C(Nc1ccc([N+](=O)[O-])c(N2CC3CC3C2)n1)c1ccc(S(=O)(=O)NCCO)cc1N1CCC2(CC1)CC2 (centres unmarked) [Compound 90]
≥ 7.00 | CC(C)(CO)Nc1nc(NC(=O)c2ccc(S(=O)(=O)NCCO)cc2N2CCC3(CC2)CC3)ccc1[N+](=O)[O-] [Compound 91]
≥ 7.00 | O=C(Nc1ccc([N+](=O)[O-])c(N2CCOCC2)n1)c1ccc(S(=O)(=O)NCCO)cc1N1CCC2(CC1)CC2 [Compound 92]
≥ 7.00 | C[C@@H](CO)NS(=O)(=O)c1ccc(C(=O)Nc2ccc([N+](=O)[O-])c(N3CCC(F)(F)CC3)n2)c(N2CCC3(CC2)CC3)c1 [Compound 93]
≥ 7.00 | C[C@H](CO)NS(=O)(=O)c1ccc(C(=O)Nc2ccc([N+](=O)[O-])c(N3CCC(F)(F)CC3)n2)c(N2CCC3(CC2)CC3)c1 [Compound 94]
